Experimental data from ChEMBL document CHEMBL5325425, “Design, synthesis and biological evaluation of pyrrolopyrimidine derivatives as novel and selective positive modulator of the small conductance Ca2+-activated K+ channels” (Eur J Med Chem, 2023).

Tests used:
[1] = molecular target: T1, Small conductance calcium-activated potassium channel protein 2 (Homo sapiens, UniProt Q9H2S1); test: Positive modulation of SK2 (unknown origin)
[2] = molecular target: T2, Small conductance calcium-activated potassium channel protein 1 (Homo sapiens, UniProt Q92952); test: Positive modulation of SK1 (unknown origin)
T2 sequence (Q92952 whole entry): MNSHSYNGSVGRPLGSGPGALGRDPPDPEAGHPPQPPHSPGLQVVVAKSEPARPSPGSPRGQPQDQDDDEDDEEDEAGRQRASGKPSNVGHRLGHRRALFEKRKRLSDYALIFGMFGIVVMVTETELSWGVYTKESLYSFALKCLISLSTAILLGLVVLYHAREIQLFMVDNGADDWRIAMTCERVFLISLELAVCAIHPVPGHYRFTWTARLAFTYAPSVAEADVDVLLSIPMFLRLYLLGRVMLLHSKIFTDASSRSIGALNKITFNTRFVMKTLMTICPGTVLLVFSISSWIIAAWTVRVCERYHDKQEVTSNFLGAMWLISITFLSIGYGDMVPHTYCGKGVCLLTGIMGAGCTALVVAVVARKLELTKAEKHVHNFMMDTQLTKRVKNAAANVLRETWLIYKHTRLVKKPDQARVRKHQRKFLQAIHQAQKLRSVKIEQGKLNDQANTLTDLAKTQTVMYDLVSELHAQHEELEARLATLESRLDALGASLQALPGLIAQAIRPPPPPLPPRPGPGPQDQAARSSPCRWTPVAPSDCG

[3] = molecular target: Small conductance calcium-activated potassium channel protein 3 (Homo sapiens, UniProt Q9UGI6); test: Positive modulation of SK3 (unknown origin)
Small conductance calcium-activated potassium channel protein 3, sequence (Q9UGI6 whole entry): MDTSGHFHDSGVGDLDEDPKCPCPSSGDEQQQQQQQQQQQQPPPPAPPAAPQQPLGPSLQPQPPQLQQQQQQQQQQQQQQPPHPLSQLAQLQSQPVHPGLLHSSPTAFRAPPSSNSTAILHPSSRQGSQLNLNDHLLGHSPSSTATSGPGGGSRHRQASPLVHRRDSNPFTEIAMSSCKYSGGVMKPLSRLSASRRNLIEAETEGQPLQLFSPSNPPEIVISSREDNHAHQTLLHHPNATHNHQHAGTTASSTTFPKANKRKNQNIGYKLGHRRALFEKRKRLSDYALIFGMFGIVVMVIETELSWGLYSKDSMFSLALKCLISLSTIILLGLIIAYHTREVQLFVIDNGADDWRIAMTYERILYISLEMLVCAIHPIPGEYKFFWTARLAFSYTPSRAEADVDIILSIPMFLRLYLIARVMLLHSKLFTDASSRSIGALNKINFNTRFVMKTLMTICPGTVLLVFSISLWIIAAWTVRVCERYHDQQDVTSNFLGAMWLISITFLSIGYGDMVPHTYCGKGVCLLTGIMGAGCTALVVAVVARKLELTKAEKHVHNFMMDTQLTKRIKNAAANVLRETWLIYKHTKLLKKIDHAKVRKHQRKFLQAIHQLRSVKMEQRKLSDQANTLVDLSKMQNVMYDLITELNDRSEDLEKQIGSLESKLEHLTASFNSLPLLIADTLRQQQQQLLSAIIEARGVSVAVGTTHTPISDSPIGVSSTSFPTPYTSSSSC

[4] = molecular target: T1, Small conductance calcium-activated potassium channel protein 2; test: Positive modulation of SK2 in HEK293 cells in presence of Ca2+ by patch-clamp method; assay type: cell-based
[5] = molecular target: T2, Small conductance calcium-activated potassium channel protein 1; test: Positive modulation of SK1 in HEK293 cells in presence of Ca2+ by patch-clamp method; assay type: cell-based
[6] = Activation of rat SK2 variant a transfected in human tsA201 cells coexpressing CaM/GFP in presence of Ca2+ by […]; assay type: cell-based
[7] = Apparent volume of distribution during terminal phase in fasted Sprague-Dawley rat at 2 mg/kg, iv measured upto 12 hrs by LC-MS/MS analysis; assay type: ADME, organism-based; settings: in vivo
[8] = Half life in fasted Sprague-Dawley rat at 100 mg/kg, po measured upto 12 hrs by LC-MS/MS analysis; assay type: ADME, organism-based; settings: in vivo
[9] = MRT in fasted Sprague-Dawley rat at 2 mg/kg, iv measured upto 12 hrs by LC-MS/MS analysis; assay type: ADME, organism-based; settings: in vivo
[10] = MRT in fasted Sprague-Dawley rat at 100 mg/kg, po measured upto 12 hrs by LC-MS/MS analysis; assay type: ADME, organism-based; settings: in vivo
[11] = AUC (0 to t) in fasted Sprague-Dawley rat at 2 mg/kg, iv measured upto 12 hrs by LC-MS/MS analysis; assay type: ADME, organism-based; set-up: dose 2 mg/kg, time < 12 hrs, route iv; settings: in vivo
[12] = Cmax in fasted Sprague-Dawley rat at 2 mg/kg, iv measured upto 12 hrs by LC-MS/MS analysis; assay type: ADME, organism-based; set-up: dose 2 mg/kg, time < 12 hrs, route iv; settings: in vivo
[13] = AUC (0 to infinity) in fasted Sprague-Dawley rat at 2 mg/kg, iv measured upto 12 hrs by LC-MS/MS analysis; assay type: ADME, organism-based; set-up: time < 12 hrs, dose 2 mg/kg, route iv; settings: in vivo
[14] = Half life in fasted Sprague-Dawley rat at 2 mg/kg, iv measured upto 12 hrs by LC-MS/MS analysis; assay type: ADME, organism-based; settings: in vivo
[15] = Oral bioavailability in fasted Sprague-Dawley rat at 100 mg/kg measured upto 12 hrs by LC-MS/MS analysis; assay type: ADME, organism-based; settings: in vivo
HUVEC = test: Cytotoxicity against HUVEC cells assessed as cell viability at 0.1 to 10000 nM incubated for 24 hrs by CCK8 assay; assay type: toxicity, cell-based; settings: human, 10 µM, dose 0.1-10000 nM
[16] = Cmax in fasted Sprague-Dawley rat at 100 mg/kg, po measured upto 12 hrs by LC-MS/MS analysis; assay type: ADME, organism-based; set-up: time < 12 hrs, dose 100 mg/kg, route po; settings: in vivo
[17] = Apparent volume of distribution during terminal phase in fasted Sprague-Dawley rat at 100 mg/kg, po measured upto 12 hrs by LC-MS/MS analysis; assay type: ADME, organism-based; settings: in vivo, read-out: Vz/F
[18] = Apparent oral clearance in fasted Sprague-Dawley rat at 100 mg/kg, po measured upto 12 hrs by LC-MS/MS analysis; assay type: ADME, organism-based; settings: in vivo
[19] = Apparent permeability across apical to basal side in human BMEC cells at 10 ug/ml incubated for 24 hrs by BBB assay; assay type: ADME, cell-based; settings: dose 10 µg/ml
[20] = Apparent oral clearance in fasted Sprague-Dawley rat at 2 mg/kg, iv measured upto 12 hrs by LC-MS/MS analysis; assay type: ADME, organism-based; settings: in vivo
[21] = Tmax in fasted Sprague-Dawley rat at 100 mg/kg, po measured upto 12 hrs by LC-MS/MS analysis; assay type: ADME, organism-based; settings: in vivo
[22] = AUC (0 to infinity) in fasted Sprague-Dawley rat at 100 mg/kg, po measured upto 12 hrs by LC-MS/MS analysis; assay type: ADME, organism-based; set-up: time < 12 hrs, dose 100 mg/kg, route po; settings: in vivo
[23] = AUC (0 to t) in fasted Sprague-Dawley rat at 100 mg/kg, po measured upto 12 hrs by LC-MS/MS analysis; assay type: ADME, organism-based; set-up: time < 12 hrs, dose 100 mg/kg, route po; settings: in vivo

T1 sequence (Q9H2S1 whole entry): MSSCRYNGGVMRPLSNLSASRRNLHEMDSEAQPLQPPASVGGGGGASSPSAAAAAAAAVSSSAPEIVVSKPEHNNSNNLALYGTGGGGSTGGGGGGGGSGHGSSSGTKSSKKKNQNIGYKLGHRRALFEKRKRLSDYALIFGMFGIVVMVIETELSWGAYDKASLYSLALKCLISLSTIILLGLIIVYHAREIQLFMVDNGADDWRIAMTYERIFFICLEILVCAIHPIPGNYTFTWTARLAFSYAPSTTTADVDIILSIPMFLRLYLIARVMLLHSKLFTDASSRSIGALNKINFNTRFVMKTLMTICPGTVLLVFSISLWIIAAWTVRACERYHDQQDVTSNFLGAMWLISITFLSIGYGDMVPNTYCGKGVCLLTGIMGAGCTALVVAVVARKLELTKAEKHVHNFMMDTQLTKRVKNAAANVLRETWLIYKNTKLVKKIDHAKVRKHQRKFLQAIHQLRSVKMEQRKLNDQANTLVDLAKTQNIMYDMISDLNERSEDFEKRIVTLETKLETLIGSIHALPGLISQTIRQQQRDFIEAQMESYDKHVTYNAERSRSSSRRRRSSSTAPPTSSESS

Cc1cc(NC2CCCCC2)nc(-n2nc(C)cc2C)n1
EC50 [1]: 14 µM
EC50 [2]: > 100 µM
EC50 [3]: 5.6 µM

O=C1Nc2c(ccc(Cl)c2Cl)C1=NO
EC50 [4]: 0.8 µM
EC50 [5]: 0.6 µM

Cc1cc(C)n(-c2nc(Nc3cccc(C(F)(F)F)c3)c3c(ccn3C)n2)n1
EC50 [6]: 20.4 µM

Cc1cc(C)n(-c2nc(Nc3ccc(F)c(Cl)c3)c3ccn(C)c3n2)n1
EC50 [6]: 1.79 µM

Cc1cc(C)n(-c2nc(Nc3ccc(I)cc3)c3ccsc3n2)n1
EC50 [6]: > 100 µM

Cc1cc(C)n(-c2nc(Nc3cccc(Br)c3)c3ccn(C)c3n2)n1
Vz/F [7]: 4.791 L/kg
half-life [8]: 1.25 h
MRT [9]: 1.5 h
MRT [10]: 3.22 h
AUC(0-t) at 12 h [11]: 1360 ng·h/mL
Cmax [12]: 1620 ng/mL
AUC(0-inf) ([13]; Sprague-Dawley): 1370 ng·h/mL
half-life [14]: 1.97 h
bioavailability ([15]; Sprague-Dawley): 4.03%
Activity (HUVEC): Non-Toxic
Cmax [16]: 662 ng/mL
Vd/F [17]: 92.9 L/kg
CL/F ([18]; Sprague-Dawley, read-out: CLz/F (converted)): 813 mL/min/kg
Papp A→B at 24 h, 10 ug/ml [19]: 3.23 ×10⁻⁶ cm/s
CLz/F [20]: 26.8 mL/min/kg
Tmax [21]: 2.67 h
AUC(0-inf) [22]: 2510 ng·h/mL
EC50 [6]: 0.73 µM
AUC(0-t) at 12 h ([23]; Sprague-Dawley): 2500 ng·h/mL

Cc1ccn(-c2nc(Nc3ccc(F)cc3)c3ccn(C)c3n2)n1
Vz/F [7]: 6.111 L/kg
half-life [8]: 1.43 h
MRT [9]: 1.51 h
MRT [10]: 3.37 h
AUC(0-t) at 12 h [11]: 1110 ng·h/mL
Cmax [12]: 1680 ng/mL
AUC ([13]; 12 h): 1168.28 ng·h/mL
half-life [14]: 2.63 h
F ([15]; po, 100 mg/kg, 12 h): 23.6%
Activity (HUVEC): Non-Toxic
Cmax [16]: 488 ng/mL
Vd/F [17]: 86.7 L/kg
CLz/F ([18]; po, 100 mg/kg, 12 h): 695.27 mL/min/kg
Papp A→B at 24 h, 10 ug/ml [19]: 3.07 ×10⁻⁶ cm/s
CLz/F [20]: 31.72 mL/min/kg
Tmax [21]: 2.67 h
AUCt ([23]; 12 h): 2427.989 ng·h/mL

Cc1cc(C)n(-c2nc(Nc3ccc(Cl)cc3)c3ccn(C)c3n2)n1
EC50 [6]: 3.5 µM

Cc1cc(C)n(-c2nc(Nc3ccc(Cl)c(C(F)(F)F)c3)c3c(ccn3C)n2)n1
EC50 [6]: 29.8 µM

Cc1cc(C)n(-c2nc(Nc3ccc(Cl)cc3)c3ccsc3n2)n1
EC50 [6]: > 100 µM

Cc1cc(C)n(-c2nc(Nc3cccc(C(C)C)c3)c3c(ccn3C)n2)n1
EC50 [6]: 2.97 µM

Cc1cc(C)n(-c2nc(Nc3ccccc3)c3ccsc3n2)n1
EC50 [6]: 8.34 µM

Cc1cccc(Nc2nc(-n3nc(C)cc3C)nc3c2ccn3C)c1
EC50 [6]: 6.54 µM

Cc1cc(C)n(-c2nc(Nc3ccc(Br)cc3)c3ccn(C)c3n2)n1
EC50 [6]: 1.94 µM

Cc1cc(C)n(-c2nc(NC3CCCCC3)c3ccn(C)c3n2)n1
EC50 [6]: 2.28 µM

Cc1cc(C)n(-c2nc(NC3CCCCC3)c3ccsc3n2)n1
EC50 [6]: > 100 µM

Cc1cc(C)n(-c2nc(N(C)Cc3ccccc3)c3ccn(C)c3n2)n1
EC50 [6]: 19.1 µM

Cc1ccn(-c2nc(Nc3ccc(Cl)c(C(F)(F)F)c3)c3ccn(C)c3n2)n1
EC50 [6]: 0.5 µM

Cc1ccn(-c2nc(Nc3cccc(Br)c3)c3ccn(C)c3n2)n1
EC50 [6]: 0.48 µM

Cc1cc(C)n(-c2nc(Nc3ccccc3)c3ccn(C)c3n2)n1
EC50 [6]: 4.31 µM

CCc1ccc(Nc2nc(-n3nc(C)cc3C)nc3sccc23)cc1
EC50 [6]: > 100 µM

Cc1cc(C)n(-c2nc(Nc3cccc(C#N)c3)c3ccn(C)c3n2)n1
EC50 [6]: 4.08 µM

Cc1cc(C)n(-c2nc(Nc3ccc(Cl)cc3)c3ncn(C)c3n2)n1
EC50 [4]: 1.8 µM
Papp A→B at 24 h, 10 ug/ml [19]: 2.94 ×10⁻⁶ cm/s
EC50 [5]: > 100 µM

Cc1cc(C)n(-c2nc(Nc3ccc(Br)cc3)c3ccsc3n2)n1
EC50 [6]: > 100 µM

Cc1ccc(Nc2nc(-n3nc(C)cc3C)nc3c2ccn3C)cc1
EC50 [6]: 3.1 µM

Cc1cc(C)n(-c2nc(Nc3ccc(C(C)C)cc3)c3ccn(C)c3n2)n1
EC50 [6]: 3.81 µM

Cc1ccc(Nc2nc(-n3nc(C)cc3C)nc3sccc23)cc1
EC50 [6]: > 100 µM

Cc1cc(C)n(-c2nc(Nc3ccc(Cl)c(C(F)(F)F)c3)c3ccn(C)c3n2)n1
EC50 [6]: 1.2 µM

Cc1cc(C)n(-c2nc(Nc3cccc(C(F)(F)F)c3)c3ccn(C)c3n2)n1
EC50 [6]: 1.6 µM

Cc1cc(C)n(-c2nc(Nc3ccccc3)c3c(ccn3C)n2)n1
EC50 [6]: 8.43 µM

CCC(CC)Nc1nc(-n2nc(C)cc2C)nc2sccc12
EC50 [6]: > 100 µM

COc1ccc(Nc2nc(-n3nc(C)cc3C)nc3c2ccn3C)cc1
EC50 [6]: 13.7 µM

Cc1ccn(-c2nc(Nc3cccc(C(F)(F)F)c3)c3ccn(C)c3n2)n1
EC50 [6]: 6.52 µM

COc1ccc(Nc2nc(-n3nc(C)cc3C)nc3sccc23)cc1
EC50 [6]: > 100 µM

Cc1cc(C)n(-c2nc(Nc3cccc([N+](=O)[O-])c3)c3ccn(C)c3n2)n1
EC50 [6]: 5.73 µM

Cc1cc(C)n(-c2nc(Nc3ccc(F)cc3)c3ccn(C)c3n2)n1
EC50 [6]: 3.41 µM

Cc1cccc(Nc2nc(-n3nc(C)cc3C)nc3ccn(C)c23)c1
EC50 [6]: 7.71 µM

Cc1cc(C)n(-c2nc(Nc3cccc(Br)c3)c3c(ccn3C)n2)n1
EC50 [6]: 1.73 µM

CCc1ccc(Nc2nc(-n3nc(C)cc3C)nc3c2ccn3C)cc1
EC50 [6]: > 100 µM

Cc1cc(C)n(-c2nc(Nc3ccc(C(C)C)cc3)c3ccsc3n2)n1
EC50 [6]: > 100 µM

Cc1cc(C)n(-c2nc(Nc3ccc(F)cc3)c3ccsc3n2)n1
EC50 [6]: 6.78 µM

CCc1ccc(Nc2nc(-n3nc(C)cc3C)nc3ccn(C)c23)cc1
EC50 [6]: 3.65 µM
